Measured values from ChEMBL document CHEMBL5465560, “Selectivity Literature for EUbOPEN Chemogenomic Library” (2024).

Legend:
[1] = biological target: Dual specificity protein kinase CLK2 (Homo sapiens, UniProt P49760); test: Selectivity interaction (Ambit KINOMEscan and KiNATiv profiling in Jurkat cells) EUB0000090b CLK2; type: cell-based; details: at 1 µM
[2] = biological target: Cyclin-dependent kinase 17 (Homo sapiens) (UniProt Q00537); test: Selectivity interaction (KinomeScan (DiscoverX)) EUB0000655a CDK17; details: at 10 µM
[3] = biological target: Wee1-like protein kinase (Homo sapiens) (UniProt P30291); test: Selectivity interaction (KinomeScan (DiscoverX)) EUB0001079a WEE1; details: at 1 µM
[4] = biological target: Serine/threonine-protein kinase WNK4 (Homo sapiens) (UniProt Q96J92); test: Selectivity interaction (KinomeScan (DiscoverX)) EUB0001079a WNK4; details: at 1 µM
[5] = biological target: Tyrosine-protein kinase Fgr (Homo sapiens) (UniProt P09769); test: Selectivity interaction (KinomeScan (DiscoverX)) EUB0001619a FGR; details: at 1 µM
Misshapen-like kinase 1 = Misshapen-like kinase 1 (Homo sapiens, UniProt Q8N4C8); test: Selectivity interaction (SelectScreen Kinase Profiling (Thermo Fisher Scientific)) EUB0001558a MINK1; details: at 1 µM
[6] = biological target: Tyrosine-protein kinase CSK (Homo sapiens) (UniProt P41240); test: Selectivity interaction (KinomeScan (DiscoverX)) EUB0000045b CSK
[7] = biological target: T1, Inhibitor of nuclear factor kappa-B kinase subunit beta (Homo sapiens) (UniProt O14920); details: at 1 µM
T1 sequence (whole entry): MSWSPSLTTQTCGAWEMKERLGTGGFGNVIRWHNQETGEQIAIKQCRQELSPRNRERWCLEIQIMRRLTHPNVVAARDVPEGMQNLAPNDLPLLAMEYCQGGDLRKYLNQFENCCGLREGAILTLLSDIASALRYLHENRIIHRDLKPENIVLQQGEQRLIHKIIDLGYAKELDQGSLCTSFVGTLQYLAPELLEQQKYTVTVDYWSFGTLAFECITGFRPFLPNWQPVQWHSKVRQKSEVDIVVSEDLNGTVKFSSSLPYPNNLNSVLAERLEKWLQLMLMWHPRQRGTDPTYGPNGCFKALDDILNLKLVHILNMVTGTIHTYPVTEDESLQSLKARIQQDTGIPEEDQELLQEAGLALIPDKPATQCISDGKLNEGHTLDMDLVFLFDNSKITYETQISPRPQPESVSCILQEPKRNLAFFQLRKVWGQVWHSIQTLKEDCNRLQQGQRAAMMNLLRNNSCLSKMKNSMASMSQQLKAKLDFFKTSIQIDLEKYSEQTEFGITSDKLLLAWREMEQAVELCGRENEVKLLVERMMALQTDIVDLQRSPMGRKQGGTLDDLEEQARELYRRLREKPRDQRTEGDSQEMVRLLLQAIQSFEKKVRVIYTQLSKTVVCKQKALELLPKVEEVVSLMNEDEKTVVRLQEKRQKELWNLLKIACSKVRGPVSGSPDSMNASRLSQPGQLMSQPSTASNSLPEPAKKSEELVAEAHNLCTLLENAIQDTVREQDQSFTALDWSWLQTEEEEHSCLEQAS

[8] = biological target: Protein kinase C theta type (Homo sapiens, UniProt Q04759); details: at 10 µM
[9] = biological target: T2, cGMP-dependent protein kinase 1 (Homo sapiens) (UniProt Q13976); details: at 10 µM
T2 sequence (whole entry): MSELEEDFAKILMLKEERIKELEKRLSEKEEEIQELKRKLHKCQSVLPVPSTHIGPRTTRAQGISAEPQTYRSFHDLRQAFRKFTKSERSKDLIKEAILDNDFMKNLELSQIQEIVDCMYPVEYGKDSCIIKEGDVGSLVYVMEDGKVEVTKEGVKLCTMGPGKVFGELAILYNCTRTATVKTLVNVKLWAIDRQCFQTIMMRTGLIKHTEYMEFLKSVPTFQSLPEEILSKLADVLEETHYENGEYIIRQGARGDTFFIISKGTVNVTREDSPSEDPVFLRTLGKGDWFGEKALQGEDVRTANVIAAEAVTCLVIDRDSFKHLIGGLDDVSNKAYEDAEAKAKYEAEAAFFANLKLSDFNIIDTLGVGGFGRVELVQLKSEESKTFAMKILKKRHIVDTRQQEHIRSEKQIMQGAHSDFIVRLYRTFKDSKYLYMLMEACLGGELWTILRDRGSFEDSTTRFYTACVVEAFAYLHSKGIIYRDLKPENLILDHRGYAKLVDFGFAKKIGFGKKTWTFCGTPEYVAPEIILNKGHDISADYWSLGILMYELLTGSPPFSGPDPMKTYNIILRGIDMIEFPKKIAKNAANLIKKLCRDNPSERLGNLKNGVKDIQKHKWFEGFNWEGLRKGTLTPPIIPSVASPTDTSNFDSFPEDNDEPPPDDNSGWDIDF

[10] = biological target: Calcium/calmodulin-dependent protein kinase kinase 2 (Homo sapiens) (UniProt Q96RR4); test: Selectivity interaction (ActivX KiNativ screen (kinase selectivity in THP-1 cell lysates)) EUB0000639a CAMKK2; type: subcellular; details: lysate, at 0.2 µM
[11] = biological target: Serine/threonine-protein kinase Chk2 (Homo sapiens) (UniProt O96017); test: Selectivity interaction (KinomeScan (DiscoverX)) EUB0000229b CHEK2; details: at 10 µM
[12] = biological target: Death-associated protein kinase 3 (Homo sapiens) (UniProt O43293); test: Selectivity interaction (KinomeScan (DiscoverX)) EUB0000229b DAPK3; details: at 10 µM
[13] = biological target: Serine/threonine-protein kinase Nek4 (Homo sapiens) (UniProt P51957); test: Selectivity interaction (KinomeScan (DiscoverX)) EUB0001049a NEK4; details: at 1 µM
[14] = biological target: Tyrosine-protein kinase Srms (Homo sapiens) (UniProt Q9H3Y6); test: Selectivity interaction (KinomeScan (DiscoverX)) EUB0001049a SRMS; details: at 1 µM
hERG (KCNH2) = hERG (KCNH2) (Homo sapiens, UniProt Q12809); test: Selectivity interaction (Panel of kinases, GPCRs, ion channels and transporters (enzymatic assay)) EUB0000223bCl KCNH2
[15] = biological target: Serine/threonine-protein kinase PAK 3 (Homo sapiens) (UniProt O75914); test: Selectivity interaction (KinomeScan (DiscoverX)) EUB0000092b PAK3; details: at 10 µM
[16] = biological target: SRSF protein kinase 2 (Homo sapiens) (UniProt P78362); test: Selectivity interaction (KinomeScan (DiscoverX)) EUB0000092b SRPK2; details: at 10 µM
[17] = biological target: Histone acetyltransferase KAT2B (Homo sapiens, UniProt Q92831); test: Selectivity interaction (Human bromodomain panel (DSF assay)) EUB0000233b KAT2B

Tyrosine-protein kinase CSK (Homo sapiens), sequence (P41240 2-450 limits assumed): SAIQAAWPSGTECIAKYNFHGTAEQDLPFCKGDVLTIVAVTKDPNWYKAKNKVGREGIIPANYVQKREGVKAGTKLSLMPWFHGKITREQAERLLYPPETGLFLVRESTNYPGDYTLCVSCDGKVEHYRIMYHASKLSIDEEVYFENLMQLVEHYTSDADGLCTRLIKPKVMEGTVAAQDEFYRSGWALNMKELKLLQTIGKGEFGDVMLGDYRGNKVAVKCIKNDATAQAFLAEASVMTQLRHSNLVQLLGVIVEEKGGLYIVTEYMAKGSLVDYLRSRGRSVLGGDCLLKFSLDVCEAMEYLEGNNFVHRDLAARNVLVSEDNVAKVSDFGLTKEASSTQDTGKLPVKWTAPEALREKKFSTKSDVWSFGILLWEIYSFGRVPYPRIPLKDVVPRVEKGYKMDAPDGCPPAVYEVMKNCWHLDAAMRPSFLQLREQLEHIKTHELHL
Tyrosine-protein kinase Srms (Homo sapiens), sequence (Q9H3Y6 whole entry): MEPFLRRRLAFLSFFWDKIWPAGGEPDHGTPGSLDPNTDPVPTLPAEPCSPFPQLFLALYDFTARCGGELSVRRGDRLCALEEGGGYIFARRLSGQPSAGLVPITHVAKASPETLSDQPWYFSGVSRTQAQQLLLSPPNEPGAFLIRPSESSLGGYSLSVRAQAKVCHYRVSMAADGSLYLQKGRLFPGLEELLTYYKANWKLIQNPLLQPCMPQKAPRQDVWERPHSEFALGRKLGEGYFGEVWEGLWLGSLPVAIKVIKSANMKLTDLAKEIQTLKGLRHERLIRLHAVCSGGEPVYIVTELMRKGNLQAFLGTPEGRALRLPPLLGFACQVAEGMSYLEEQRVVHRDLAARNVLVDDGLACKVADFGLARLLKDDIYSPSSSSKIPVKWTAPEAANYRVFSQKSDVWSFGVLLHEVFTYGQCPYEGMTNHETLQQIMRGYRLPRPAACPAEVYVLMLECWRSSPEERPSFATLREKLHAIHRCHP
Dual specificity protein kinase CLK2, sequence (P49760 whole entry, looked up): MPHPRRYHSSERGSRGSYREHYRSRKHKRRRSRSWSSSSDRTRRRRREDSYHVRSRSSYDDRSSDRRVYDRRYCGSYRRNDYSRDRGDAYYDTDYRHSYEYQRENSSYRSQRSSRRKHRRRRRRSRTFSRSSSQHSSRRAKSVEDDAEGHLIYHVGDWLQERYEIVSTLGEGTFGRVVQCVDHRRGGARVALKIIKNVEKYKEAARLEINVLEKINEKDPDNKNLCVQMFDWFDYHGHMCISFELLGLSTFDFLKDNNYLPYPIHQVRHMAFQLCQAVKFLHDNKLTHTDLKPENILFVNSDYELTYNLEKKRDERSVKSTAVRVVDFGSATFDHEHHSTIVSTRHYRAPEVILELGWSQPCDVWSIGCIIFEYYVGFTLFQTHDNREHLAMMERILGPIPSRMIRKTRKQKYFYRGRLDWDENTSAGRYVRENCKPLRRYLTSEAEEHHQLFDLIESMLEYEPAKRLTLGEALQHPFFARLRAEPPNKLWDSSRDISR
Misshapen-like kinase 1, sequence (Q8N4C8 whole entry, looked up): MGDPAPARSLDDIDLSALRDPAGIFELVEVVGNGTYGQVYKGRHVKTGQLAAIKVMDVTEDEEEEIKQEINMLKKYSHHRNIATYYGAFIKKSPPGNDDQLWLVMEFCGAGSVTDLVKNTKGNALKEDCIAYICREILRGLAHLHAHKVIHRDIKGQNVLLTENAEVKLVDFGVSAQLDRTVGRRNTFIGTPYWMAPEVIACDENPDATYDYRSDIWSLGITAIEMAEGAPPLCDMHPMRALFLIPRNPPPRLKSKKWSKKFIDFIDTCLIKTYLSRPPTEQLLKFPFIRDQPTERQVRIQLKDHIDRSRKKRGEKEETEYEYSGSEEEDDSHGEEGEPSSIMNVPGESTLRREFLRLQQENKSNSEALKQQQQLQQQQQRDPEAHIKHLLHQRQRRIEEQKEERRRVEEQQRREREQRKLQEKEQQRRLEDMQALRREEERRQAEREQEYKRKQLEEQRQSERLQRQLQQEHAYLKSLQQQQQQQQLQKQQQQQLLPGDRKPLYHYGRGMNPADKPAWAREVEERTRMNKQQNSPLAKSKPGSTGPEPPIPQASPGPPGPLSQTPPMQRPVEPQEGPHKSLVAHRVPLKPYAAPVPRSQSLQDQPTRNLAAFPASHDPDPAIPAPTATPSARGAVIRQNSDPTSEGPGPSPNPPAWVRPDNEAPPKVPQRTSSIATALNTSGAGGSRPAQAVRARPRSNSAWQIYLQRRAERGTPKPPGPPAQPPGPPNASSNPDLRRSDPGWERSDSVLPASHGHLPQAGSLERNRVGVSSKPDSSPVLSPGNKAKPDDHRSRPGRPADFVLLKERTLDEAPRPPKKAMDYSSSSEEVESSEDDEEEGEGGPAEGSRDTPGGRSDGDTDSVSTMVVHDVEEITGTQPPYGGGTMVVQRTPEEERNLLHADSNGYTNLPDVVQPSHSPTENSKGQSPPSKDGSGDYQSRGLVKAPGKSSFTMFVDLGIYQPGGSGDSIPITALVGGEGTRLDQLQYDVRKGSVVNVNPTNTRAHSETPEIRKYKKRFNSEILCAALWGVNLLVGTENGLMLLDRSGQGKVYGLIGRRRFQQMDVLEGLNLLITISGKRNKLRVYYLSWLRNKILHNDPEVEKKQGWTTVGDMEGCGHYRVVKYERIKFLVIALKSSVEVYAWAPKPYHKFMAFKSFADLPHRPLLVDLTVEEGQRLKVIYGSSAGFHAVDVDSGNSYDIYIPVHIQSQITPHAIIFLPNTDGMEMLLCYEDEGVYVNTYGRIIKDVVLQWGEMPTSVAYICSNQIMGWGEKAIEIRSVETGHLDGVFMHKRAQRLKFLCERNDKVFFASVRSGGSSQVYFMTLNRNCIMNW
Serine/threonine-protein kinase WNK4 (Homo sapiens), sequence (Q96J92 whole entry): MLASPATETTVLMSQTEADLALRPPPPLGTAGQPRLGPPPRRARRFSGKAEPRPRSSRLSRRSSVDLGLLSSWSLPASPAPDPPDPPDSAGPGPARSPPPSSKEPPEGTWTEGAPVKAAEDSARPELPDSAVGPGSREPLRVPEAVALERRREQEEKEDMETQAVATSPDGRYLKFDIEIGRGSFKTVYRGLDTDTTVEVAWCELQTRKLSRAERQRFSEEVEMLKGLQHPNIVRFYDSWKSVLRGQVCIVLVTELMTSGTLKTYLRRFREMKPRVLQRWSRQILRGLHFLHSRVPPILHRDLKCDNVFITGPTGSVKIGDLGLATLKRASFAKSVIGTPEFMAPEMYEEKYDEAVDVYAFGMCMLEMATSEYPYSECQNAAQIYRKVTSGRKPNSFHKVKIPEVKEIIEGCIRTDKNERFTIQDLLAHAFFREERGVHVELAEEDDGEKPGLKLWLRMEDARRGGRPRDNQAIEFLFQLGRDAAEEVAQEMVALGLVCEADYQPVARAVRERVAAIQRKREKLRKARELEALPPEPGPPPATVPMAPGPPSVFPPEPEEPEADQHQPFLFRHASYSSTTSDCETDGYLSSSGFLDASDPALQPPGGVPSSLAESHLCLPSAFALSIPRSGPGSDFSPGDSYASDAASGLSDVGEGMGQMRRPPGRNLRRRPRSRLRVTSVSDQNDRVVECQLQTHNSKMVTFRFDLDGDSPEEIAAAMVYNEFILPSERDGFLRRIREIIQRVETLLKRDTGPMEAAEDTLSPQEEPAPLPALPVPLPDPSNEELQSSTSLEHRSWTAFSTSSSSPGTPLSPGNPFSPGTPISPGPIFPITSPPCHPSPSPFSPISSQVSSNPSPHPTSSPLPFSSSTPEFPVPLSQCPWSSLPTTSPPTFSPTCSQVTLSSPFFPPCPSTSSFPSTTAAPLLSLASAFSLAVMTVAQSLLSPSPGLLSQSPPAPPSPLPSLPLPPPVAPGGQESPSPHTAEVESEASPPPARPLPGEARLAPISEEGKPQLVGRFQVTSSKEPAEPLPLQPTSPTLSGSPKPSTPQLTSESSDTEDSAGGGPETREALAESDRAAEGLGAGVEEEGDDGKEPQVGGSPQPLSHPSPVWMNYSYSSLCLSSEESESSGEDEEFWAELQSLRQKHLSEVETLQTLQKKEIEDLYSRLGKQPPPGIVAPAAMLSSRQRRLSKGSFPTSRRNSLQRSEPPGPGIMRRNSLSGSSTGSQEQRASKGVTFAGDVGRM
Protein kinase C theta type, sequence (Q04759 whole entry, looked up): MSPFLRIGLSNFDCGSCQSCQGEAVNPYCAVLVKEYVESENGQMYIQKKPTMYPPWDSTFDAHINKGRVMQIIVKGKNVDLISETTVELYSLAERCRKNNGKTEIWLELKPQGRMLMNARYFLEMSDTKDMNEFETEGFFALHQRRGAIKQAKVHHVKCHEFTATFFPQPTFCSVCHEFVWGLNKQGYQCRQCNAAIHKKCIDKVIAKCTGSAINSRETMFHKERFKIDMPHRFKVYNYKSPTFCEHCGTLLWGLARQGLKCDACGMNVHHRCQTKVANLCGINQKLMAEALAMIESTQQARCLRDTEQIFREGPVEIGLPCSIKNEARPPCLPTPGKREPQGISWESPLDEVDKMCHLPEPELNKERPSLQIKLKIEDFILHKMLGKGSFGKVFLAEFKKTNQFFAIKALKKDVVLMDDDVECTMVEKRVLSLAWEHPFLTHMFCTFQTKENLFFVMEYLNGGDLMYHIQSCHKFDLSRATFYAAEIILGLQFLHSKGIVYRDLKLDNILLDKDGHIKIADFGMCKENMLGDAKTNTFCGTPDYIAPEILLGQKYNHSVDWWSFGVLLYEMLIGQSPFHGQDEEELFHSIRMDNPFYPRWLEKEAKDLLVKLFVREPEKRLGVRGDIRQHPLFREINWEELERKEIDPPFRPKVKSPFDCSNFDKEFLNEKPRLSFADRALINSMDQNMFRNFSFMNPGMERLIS

Molecule CN(C)C/C=C/C(=O)Nc1ccc(C(=O)N2CCCC(Nc3ncc(Cl)c(-c4c[nH]c5ccccc45)n3)C2)cc1 (stereo not given) has a % of control [1] of 55%.
Work on CN(C)CCOc1ccc(-c2nc(-c3ccncc3)c(-c3ccc4c(c3)CC/C4=N\O)[nH]2)cc1 yielded a % of control [2] of 87%.
In the case of Nc1cnc(N2CCc3cc(S(=O)(=O)Nc4c(F)cc(Cl)cc4F)cc(N4CCCC4=O)c32)nc1 [TP-020n], the % of control [3] is reported as 72% and the % of control [4] is reported as 100%.
N#Cc1cccc(-c2c[nH]c3ncnc(N4CCOCC4)c23)c1 was tested, and the % of control [5] was 100%.
CC(C)(O)[C@H](F)CN1Cc2cc(NC(=O)c3cnn4cccnc34)c(N3CCOCC3)cc2C1=O was tested, and the % of inhibition (Misshapen-like kinase 1) was 80.5%.
For C=CC(=O)Nc1cc(-n2c(=O)ccc3cnc4ccc(-c5ccc(NS(C)(=O)=O)cc5)cc4c32)ccc1C, the % of control ([6]; at 1 µM) was 99% and the % of control ([6]; at 10 µM) was 75%.
Cc1ccc(-c2ccc3c(ccc4sc5c(c43)NC[C@@H](C)NC5=O)n2)cn1 was tested, and the % of inhibition [7] was 0%.
Molecule Cc1cc([C@@H](C)Nc2ccccc2C(=O)O)c2nc(N3CCOCC3)cc(=O)n2c1 [AZD-6482] has a % of control [8] of 97% and a % of control [9] of 100%.
Molecule CC[C@@H]1[C@H](F)C(=O)N[C@@H]1COc1nccc2cc(C(N)=O)c(OC)cc12 [ZIMLOVISERTIB] has a % of inhibition [10] of -5.9%.
Work on COc1cc(N(C)c2ccnc3ccc(C(F)(F)F)cc23)cc(OC)c1OC yielded a % binding [11] of 74% and a % binding [12] of 91%.
Molecule COc1cc(Nc2nc(C)cc(-c3cnn4nc(OC)ccc34)n2)cc(C(F)(F)F)c1 has a % of control [13] of 90% and a % of control [14] of 66%.
With COc1cc(C(=O)N2CC[C@@H](O)[C@@H](N)C2)cc2nc(-c3cc4ccccc4n3CC3CC3)n(C)c12 the XC50 (hERG (KCNH2)) was 31.6 µM.
For CCC(=O)N1CCN(c2ccc(-n3c(=O)ccc4cnc5ccc(-c6cnc7ccccc7c6)cc5c43)cc2C(F)(F)F)CC1, the % of control [15] was 100% and the % of control [16] was 100%.
CN(C)CCCOc1ccc(-c2cc(NCCCn3cccn3)nc(S(C)(=O)=O)n2)cc1 was tested, and the dTM [17] was < 2 K.
